What is called Km is the concentration of substrate that gives half-maximal velocity. As a reminder, the kcat is the maximal rate divided by the concentration of active sites.

Data set [1] is filed under the species Homo sapiens.
For data set [2], the species on record is Homo sapiens. The source holds these as a separate data set.
Data set [3] has as its system Nc1nc(O)c2ncn([C@H]3C[C@H](O)[C@@H](CO)O3)c2n1. To be noted: Homo sapiens.
For data set [4] the test system is unchanged. To be noted: Homo sapiens. The source holds these as a separate data set.

Deoxycytidine kinase (Homo sapiens), P27707, sequence (P27707 whole entry): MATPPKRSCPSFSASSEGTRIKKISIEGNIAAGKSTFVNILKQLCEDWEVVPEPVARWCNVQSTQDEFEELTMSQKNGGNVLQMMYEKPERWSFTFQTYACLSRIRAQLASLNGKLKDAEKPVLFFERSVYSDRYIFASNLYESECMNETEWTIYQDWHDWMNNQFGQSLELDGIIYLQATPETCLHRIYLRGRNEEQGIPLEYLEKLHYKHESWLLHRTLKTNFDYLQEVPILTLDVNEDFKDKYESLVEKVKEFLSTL

Regarding `Nc1nc(O)c2ncn([C@H]3C[C@H](O)[C@@H](CO)O3)c2n1`, in the data set filed under Homo sapiens [1], the Km amounted to 10.4 µM and the kcat amounted to 0.43 s⁻¹. In the data set filed under Homo sapiens [2], the Km came out at 700 µM and the catalytic constant (kcat) was 3.6 s⁻¹.
As for “Deoxycytidine kinase (Homo sapiens), P27707”, the Km in data set [3] was found to be 181 µM. Besides, in data set [4], the Km was 41 µM and the kcat came to 0.53 s⁻¹.
